Data published in paper PMC5352051, “Identification of a novel Polo-like kinase 1 inhibitor that specifically blocks the functions of Polo-Box domain” (Oncotarget, 2016).

Legend:
Plk1 PBD = target: T1, Plk1 PBD (Homo sapiens, UniProt P53350); assay: Circular dichroism spectroscopy; settings: complex with T521
T1 construct: (326-603 aa), Plk2 (355-685 aa), and Plk3 (335-646 aa); 6xHis (N); 6xHis (C); made in house; host or cells: E. coli Rosetta BL21(DE3)
Procedure: PAGE, and then the stained band was excised from The raw data was processed using Proteome the polyacrylamide gel, washed twice with water, and Discoverer software (Thermo Fischer). MS2 spectra destained with 40% ACN/50 mM NH4HCO3. The gel were searched with SEQUEST engine against target Plk1 pieces were dehydrated with 100% ACN and dried for protein and common pollution proteins database (246 5 min using a speedvac. Disulfide bonds were reduced Protein Sequences). Database searches were performed by treatment with DTT (10 mM, 56°C, 45 min), and the with the following parameters: precursor mass tolerance free sulfhydryl groups were alkylated with iodoacetamide 20 ppm; MS/MS mass tolerance 0.6 Da; two missed (55 mM, 25°C, 60 min in the dark). After drying with cleavage for tryptic peptides; variable modifications a speedvac, the gel was rehydrated using 100 ng/μL oxidation (M), T521 fragment modification (+301.02) trypsin (50 mM NH4HCO3, pH8.3) on ice for 30 min, (K, R), fixed modification Carbamidomethyl (C), the and the digestion was carried out at 37°C for 60 min and results were filtered for a 1% false discovery rate (FDR) then quenched with 1.0% FA. The tryptic peptides were at the PSM level utilizing the percolator-based algorithm. extracted twice with 60% ACN containing 0.1% FA, and Peptide identifications were grouped into proteins then the combined digest solution was concentrated to 25 according to the law of parsimony. […]
B; 90–91 min, 80%–4% B; 91–100 min, 4% B. Eluting the calculation of mean residue ellipticity. […] Three MS spectra were acquired from m/z 300 to m/z 1,800, and independent experiments were performed for each sample. the 10 most intense ions with charges more than 2 and Spectral deconvolution of CD data was performed using above an intensity threshold 500 were fragmented in the CDNN to determine relative quantities of α-helix, linear ion trap using normalized collision energy of 35%. β-sheet, β-turn and random coil. […]

HeLa = assay: MTT assay; type: cell-based; settings: Homo sapiens, Cervix, tumor, read-out: IC50 proliferation
Procedure: (§1) The MTT assay was performed as described. In brief, cells were seeded at 3000~5000 cells/well into 96-well plates (200 μL/well) and incubated overnight. We replaced the growth medium with fresh medium containing T521 at several concentrations (two-fold dilutions and the initial concentration is 50 μM, 10 reactions total). After further incubation for 48 hrs in the presence of T521, the medium was removed from all wells and the cells were incubated with 200 μL of fresh medium for additional 24 hrs. We then added 22 μL of MTT solution (Amresco; 5 mg/mL in PBS) to each well and incubated the plate for 4 hrs at 37°C. After removing the medium, we dissolved the purple MTT-formazan crystals by adding 150 μL of DMSO to each well and recorded absorbance at 560 nm by Envision Multilabel Reader (PerkinElmer). The inhibition curve was plotted to determine the IC50 of various cell lines using GraphPad Prism5.0.

MCF-7 = assay: MTT assay; type: cell-based; settings: Homo sapiens, MCF7; MCF-7, Breast, tumor; read-out: IC50 proliferation
Procedure: as §1

SH-SY5Y = assay: MTT assay; type: cell-based; settings: Homo sapiens, Brain, tumor, read-out: IC50 proliferation
Procedure: as §1

SaOS-2 = assay: MTT assay; type: cell-based; settings: Homo sapiens; SaOS-2, Bone, tumor; read-out: IC50 proliferation
Procedure: as §1

HepG2 = assay: MTT assay; type: cell-based; settings: Homo sapiens; HepG2, Liver, tumor; read-out: IC50 proliferation
Procedure: as §1

Bel7402 = assay: MTT assay; type: cell-based; settings: Homo sapiens, Bel-7402; Bel7402, Liver, tumor; read-out: IC50 proliferation
Procedure: as §1

MG63 = assay: MTT assay; type: cell-based; settings: Homo sapiens, MG-63; MG63, Bone, tumor; read-out: IC50 proliferation
Procedure: as §1

HCT-116 = assay: MTT assay; type: cell-based; settings: Homo sapiens; HCT-116, Colon, tumor; read-out: IC50 proliferation
Procedure: as §1

L02 = assay: MTT assay; type: cell-based; settings: Homo sapiens; L02, Liver, normal; read-out: IC50 proliferation
Procedure: as §1

A549 = assay: MTT assay; type: cell-based; settings: Homo sapiens; A549, Lung, tumor; read-out: IC50 proliferation
Procedure: as §1

U-2OS = assay: MTT assay; type: cell-based; settings: Homo sapiens, U2OS, Bone, tumor, read-out: IC50 proliferation
Procedure: as §1

HT29 = assay: MTT assay; type: cell-based; settings: Homo sapiens, HT-29; HT29, Colon, tumor; read-out: IC50 proliferation
Procedure: as §1

MRC-5 = assay: MTT assay; type: cell-based; settings: Homo sapiens, MRC5; MRC-5, Lung, normal; read-out: IC50 proliferation
Procedure: as §1

PC3 = assay: MTT assay; type: cell-based; settings: Homo sapiens, PC-3; PC3, Prostate, tumor; read-out: IC50 proliferation
Procedure: as §1

T1 sequence (P53350 326-603): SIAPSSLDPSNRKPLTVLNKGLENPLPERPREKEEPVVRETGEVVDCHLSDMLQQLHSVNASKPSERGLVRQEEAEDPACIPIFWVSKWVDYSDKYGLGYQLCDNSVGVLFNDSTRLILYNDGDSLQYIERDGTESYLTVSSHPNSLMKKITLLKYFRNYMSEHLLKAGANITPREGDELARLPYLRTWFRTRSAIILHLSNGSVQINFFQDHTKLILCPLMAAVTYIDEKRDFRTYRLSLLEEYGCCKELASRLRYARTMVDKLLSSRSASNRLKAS

CCS(=O)(=O)c1oc(-c2ccc(F)cc2)nc1S(=O)(=O)c1ccccc1 [T521, 5-(ethylsulfonyl)-2-(4-fluorophenyl)-4-(phenylsulfonyl) oxazole]
β-turn composition of Plk1 PBD complex (Plk1 PBD; native Plk1 PBD 21.08%): 29.59% | α-helix composition of Plk1 PBD complex (Plk1 PBD; native Plk1 PBD 26.18%): 11.63% | random coil composition of Plk1 PBD complex (Plk1 PBD; native Plk1 PBD 34.80%): 41.46% | IC50 (HeLa): 4.43 µM | IC50 (MCF-7): 1.58 µM | IC50 (SH-SY5Y): 1.37 µM | IC50 (SaOS-2): 1.56 µM | IC50 (HepG2): 3.17 µM | IC50 (Bel7402): 5.13 µM | IC50 (MG63): 6.25 µM | IC50 (HCT-116): 3.55 µM | IC50 (L02): 7.11 µM | IC50 (A549): 3.56 µM | IC50 (U-2OS): 1.06 µM | IC50 (HT29): 3.86 µM | IC50 (MRC-5): 2.64 µM | IC50 (PC3): 1.09 µM
